Patent publication US12258336B2, “Preparation of seimicarbazide-sensitive amine oxidase inhibitor and use thereof” (SHANGHAI ENNOVABIO PHARMACEUTICALS CO., LTD., priority 2018, dated 2025)
Read-outs that look alike come from different tables or passages of the source.

Molecular target: T1, SSAO/VAP-1 (Rattus norvegicus, UniProt O08590)
T1 construct: from tissue; host or cells: rat plasma, brain, retina, small intestine, lung, liver, kidney
T1 sequence (O08590 1-763): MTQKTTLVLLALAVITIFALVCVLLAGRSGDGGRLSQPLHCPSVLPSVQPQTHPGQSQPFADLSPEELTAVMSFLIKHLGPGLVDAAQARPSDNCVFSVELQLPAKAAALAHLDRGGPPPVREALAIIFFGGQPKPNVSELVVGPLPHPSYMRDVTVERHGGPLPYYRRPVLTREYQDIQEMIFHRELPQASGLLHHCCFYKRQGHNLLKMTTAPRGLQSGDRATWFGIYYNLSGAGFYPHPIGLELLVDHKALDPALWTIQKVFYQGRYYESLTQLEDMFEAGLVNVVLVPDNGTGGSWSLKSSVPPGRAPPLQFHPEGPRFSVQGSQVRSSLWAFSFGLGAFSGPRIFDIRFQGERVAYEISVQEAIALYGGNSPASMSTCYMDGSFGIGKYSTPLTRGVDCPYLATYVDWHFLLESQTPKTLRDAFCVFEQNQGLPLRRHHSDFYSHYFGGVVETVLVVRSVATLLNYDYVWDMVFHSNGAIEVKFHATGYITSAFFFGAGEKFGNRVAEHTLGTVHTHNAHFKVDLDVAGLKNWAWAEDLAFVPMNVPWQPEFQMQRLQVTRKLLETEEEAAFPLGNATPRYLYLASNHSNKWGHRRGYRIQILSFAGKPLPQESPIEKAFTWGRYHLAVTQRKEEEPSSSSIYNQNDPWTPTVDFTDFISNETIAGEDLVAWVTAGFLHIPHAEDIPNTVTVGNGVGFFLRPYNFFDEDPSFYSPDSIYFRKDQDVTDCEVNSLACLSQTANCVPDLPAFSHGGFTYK
Assay: Inhibitory activity on SSAO/VAP-1 in animal tissues after oral administration
Assay type: in vivo
Conditions: 24 hours post single administration, mean ± SEM
Protocol: MAO-Glo Assay kit (Promega, V1402) was used to determine the activity of SSAO in animal tissues. After test compounds were adminstered to the animal, SSAO enzyme activity was calculated by measuring the activity of the monoamine oxidases in the animal tissue homogenate that was insensitive to MAO inhibitors Clogyline and Pargyline. The compounds were orally administered to rats at different doses, and same volume of vehicle was orally administered to control animals. Animal plasma, brain, retina, small intestine, lung, liver, and kidney were respectively collected 24 hours after administration (the animals were perfused with PBS before the collection of small intestine, lung, liver, and kidney) and stored in a −80° C. refrigerator until analysis. Each tissue was homogenized in tissue homogenate lysis buffer (20 mM HEPES, pH 7.4, 150 mM NaCl, 1 mM EDTA, 1 mM EGTA, 1% Triton X-100 and 1× Roche Complete protease inhibitor tablet). The homogenate was centrifuged at 12000 rpm at 4° C. for 30 minutes to remove tissue fragments. 5 μL of supernatant and 2 μL of mixture of Clogyline (10 μM) and Pargyline (10 μM) were incubated for 10 minutes at room temperature. Then 2 μL of substrate from MAO-Glo assay kit was added to the mixture, and reacted at room temperature for 60 minutes. Detection reagents were added to quench the reaction according to instructions. The fluorescein data was read by Biotek Neo2. The activity of monoamine oxidase in tissues that is not sensitive to MAO inhibitors was used to represent the activity of SSAO. Percentage of SSAO activity in administered animals was compared with that of control animals to calculate the compound inhibition rate.

[1] = brain, read-out: remaining SSAO activity percentage (SSAO activity %), Brain
[2] = plasma, read-out: remaining SSAO activity percentage (SSAO activity %), Plasma
[3] = retina, read-out: remaining SSAO activity percentage (SSAO activity %), Retina

remaining activity at 0.6 mg/kg [1] [%] | remaining activity at 0.6 mg/kg [2] [%] | remaining activity at 0.6 mg/kg [3] [%] | Structure (SMILES) | remaining activity at 1 mg/kg [1] [%] | remaining activity at 1 mg/kg [2] [%] | remaining activity at 1 mg/kg [3] [%]
49.1 ± 21.2 | 24.3 ± 5.2 | 28.7 ± 8.5 | COC1CC2CC1CN2c1ncc(OC/C(=C/F)CN)cn1 (stereo not drawn) [Example 2] | – | – | –
– | – | – | NC/C(=C\F)COc1cnc(N2CCC3(CC2)COC3)nc1 [Example 3] | 55.6 ± 10.5 | 15.2 ± 2.6 | 8.9 ± 3.2
27.3 ± 1.8 | 5.8 ± 2.1 | 8 ± 0.8 | CC1(C)CN(c2ncc(OC/C(=C/F)CN)cn2)CCN1C1COC1 [Example 10] | – | – | –
– | – | – | COC1CC2CCC(C1)N2c1ncc(OC/C(=C/F)CN)cn1 (stereo not drawn) [Example 12] | 63.1 ± 12.1 | 25.6 ± 3 | 24.6 ± 3.5
